# From US20030005484A1, “Microbiocidal and pesticidal aromatic aldehydes” (ProGuard, Inc., priority 1994, published 2003)
# “And” between values parts separate entries of the source, which are not always exact repeats. Equal entries are not always repeated.
# Key:
# [1] = tested on: thrips insects (Frankliniella occidentalis); experiment: residual activity on filter paper against thrips; type: in vivo; details: residue on filter paper, rehydrated 24 and 72 hours after spraying; thrips mortality after one hour
# Protocol: In the first experiment, two ml of two concentrations of CNMA (0.3 and 1%) were sprayed on filter paper (Whatman). As a negative control, two ml of water also were sprayed on filter paper. Twenty-four hours later, two ml of water were sprayed on treatment and control filter paper, which were then dried for 30 min. Approximately 30 thrips insects (Frankliniella occidentalis) were introduced and the number of F. occidentalis were observed after one hour. Mean mortality was calculated for each treatment.
# After 72 hours, the treatment filter papers were flipped over and only the negative control filter paper and the filter paper treated with 1% CNMA were sprayed with 2 ml of water and allowed to dry for 30 minutes. Approximately 30 thrips were introduced to the two treated filter papers and after one hour the number of dead F. occidentalis were observed and the mean mortality calculated for each treatment. A similar assay was conducted using a-hexyl cinnamaldehyde. Mean mortality was higher for rehydrated filter papers compared to non-rehydrated filter papers over time.
# [2] = 25° C; cited from earlier work
# [3] = tested on: grape phylloxera eggs; experiment: whole plant or invertebrate
# Protocol: Mixed age groups of 60 grape phylloxera eggs were established on filter paper (Whatman #1, 5.5 cm circles) in 50×9 mm sealed plastic petri dishes treated with 100 μl of solution. A selected concentration of a test formulation of 400 μl was added to the filter disk and the dish closed with the petri dish cover and placed in a plastic container box. After 6 hours, the box was placed in an environmental chamber at 24° C. in the dark. The eggs were placed in groups of 10. After one week, the percentage of hatch is determined. In an initial test, doses from 0.1 to 25,000 ppm cinnamic aldehyde in 6% NaHCO3 and 2% Tween 80 were evaluated with a single group of eggs at each dosage. Three replicates of the experiment were performed. […] LD50 and LD95 were determined by probit analysis.
# Grape phylloxera eggs were treated with cinnamaldehyde (CNMA) in a 6% NaHCO3, 2% Tween-80 formulation in a laboratory bioassay. Mortality of the eggs was indicated by failure of the egg shell to split. […] Leaves of one-year-old greenhouse Vitis vinifera cultivar Merlot vines heavily infested with grape phylloxera were sprayed to run-off with a CNMA treatment using the same formulation. […] Roots taken from plants 1, 2 and 5 weeks after CNMA or other treatments were placed in Petri dish bioassays and infested with untreated phylloxera eggs.
# Eggs of various age classes were placed on Whatman #1 filter paper moistened with enough treatment solution to form a meniscus about halfway up the sides of the eggs. The pieces of filter paper with eggs were maintained in sealed plastic Petri dishes at […] until they were 7 days old and then hatched individuals were counted. Hatch was considered successful if the […]
# [4] = tested on: melon aphid (Aphis gossypii Glover); experiment: melon aphid on chrysanthemum leaves, 5% HCA formulations; type: in vivo; details: 5% HCA (emulsion with 1% Tween 20 in water, or microencapsulated); 24 hours
# Protocol: For each test, treatment cartons received the active ingredient as a 5% aqueous emulsion or as microcapsules in either beeswax or carnauba wax. The negative control was a water only treatment. Sprays of each treatment were applied using a laboratory spray tower calibrated to spray the field equivalent of 113 liters per acre. The paper carton arenas were maintained at room temperature. Experimental cartons were examined at 24 hours post-treatment and % mortality determined (see FIG. 3). Every treatment regimen killed 100% of the melon aphids at 24 hours.
# [5] = tested on: aphids; experiment: aphids on sprayed roses; type: in vivo; details: plants P3 (T2) and P4 (T1), each with >35 insects before treatment
# [6] = tested on: rust; experiment: rust (and spores) on roses, disease rating / MPDC after foliar spray; type: in vivo, Phragmidrium mucronatrum
# Protocol: (§1) Each formulation is evaluated for its effect on specific pests and/or plant host using any of the compounds of formula (1) as well as other components of the formulation such as Tween 80 and/or sodium bicarbonate, with the combination and effective amount of each component adapted for a particular application to minimize toxicity while maintaining or increasing the antipathogenic effect of the formulation. The effective amount of each component may be determined by systematically varying the amount of that component in a test formulation, treating a plant of interest with the test formulation, and monitoring the level of pest infestation compared to an untreated control plant. An effective amount of a test component is identified as the amount that controls the growth of the pathogen on the plant host, thus reducing the disease rating of the plant. The mean percentage disease […] (MPDC) can be calculated for each particular application. MPDC is defined by the formula: [formula] Eight cultivars of rose were tested to investigate the effect of a cinnamic aldehyde/NaHCO3 formulation on rust and spores. The cultivars used included Moss unnamed (Moss), […], Rosette Delize (Hybrid Tea), Rosa Rugosa Rubra (Rugosa), Abel Morrison (Hybrid perpetual), John Laing, Betty Prior, and Rose de Roi. […] The Hybrid Tea and Hybrid perpetual were rated 3 and the Rugosa was rated 1. […] Control plants received no treatment. […] Moreover, the treatment appeared to have induced systemic resistance. […] Plants were an average of 0.86 m apart. […] Controls were untreated plants. […] Weekly reviews were made of the various plants. […] Six cultivars of infected rose in dedicated experimental rose gardens were used. Four Mrs. John Laing (Hybrid perpetual) and two Marchionese of Londonderry (Hybrid perpetual) rose plants were treated with one of two formulations of coniferyl aldehyde. […] The first two Mrs. […] Mrs. […] Both Marchionese of Londonderry plants (P5 and P6) were rated 5 for powdery mildew and rust after Paulus and Nelson (supra). Two treatment formulae were used for this trial. […] Control plants were sprayed with water alone. The change in the rating from pre-treatment to post-treatment was calculated as the mean percentage of disease control (MPDC) as described herein.
# [7] = tested on: powdery mildew; experiment: powdery mildew on roses, disease rating / MPDC after foliar spray; type: in vivo, Sphaerotheca pannosa; details: for Powdery Mildew, Post (rating): ~100 ml spray; for Mean % Disease Control, rose powdery mildew: single 100 ml foliar spray
# Protocol: as §1, with “herein. A three treatment experiment with cinnamic aldehyde formula, coniferyl aldehyde formula and combined cinnamic and coniferyl aldehyde formula was carried out on field grown roses known to be susceptible to powdery mildew. The plants were blocked by variety before fungicide treatments and were randomized as to the plants. Two varieties were used in each of the three experiments described below. […] In experiment 3 Comte de Chambord (Portland) and Madame Pierre Oger (Bourbon) were used. In Experiment 1, the effect of cinnamic aldehyde alone and in combination with Tween 80 and/or NaHCO3 component was evaluated in experiment 2 the effect of coniferyl aldehyde alone and in combination with Tween 80 and/or NaHCO3 was evaluated and in experiment 3 a combination of cinnamic aldehyde and coniferyl aldehyde with Tween 80 and/or NaHCo3 was evaluated. […] See Table 3 for the treatment protocol; formula 1 was used for these experiments. […] Plants were evaluated using the Paulus/Nelson scale just prior to and four days after treatment. […] Moreover, cinnamic aldehyde, coniferyl aldehyde, Tween 80 and NaHCO3 are used in the food industry and there is likely to be little toxicological risk to the consumer or handler from any horticultural or food crop sprayed in this way. Similarly, as these chemicals leave no toxic residue, there is little chance of any detrimental effect on the wider environment, and their use is likely to be compatible with current biological control methods such as beneficial insects and/or microorganisms.” for “herein.”
# [8] = T1 low dose: 5 g coniferyl aldehyde, 10 g Tween 80, 80 g NaHCO3 per 1000 g, plants P1, P4, P6
# [9] = T2 high dose: 100 g coniferyl aldehyde, 20 g Tween 80, 120 g NaHCO3 per 1000 g, plants P2, P3, P5
# [10] = baseline before T1 low dose, plants P1, P4, P6
# [11] = baseline before T2 high dose, plants P2, P3, P5
# [12] = 1000 ppm in 6% NaHCO3, 2% Tween 80, 7 days
smiles,measurement,setting,value
"CCCCCC/C(C=O)=C/c1ccccc1 [HCA, 2-hexyl-3-phenyl-2-propenal]",residual activity,[1],have residual activity
same,vapor pressure,[2],70×10^−5 mm Hg
same,egg hatch failure / mortality at 560 ppm,"[3]; 560 ppm, egg tests with CNMA analogs",no hatch failure at 560 ppm; rapid
same,mortality at 100 ppm,"[3]; Daktulosphaira vitifoliae, read-out: rapid nymphal mortality",100%
same,melon aphids killed,[4],100%
COc1cc(/C=C/C=O)ccc1O [coniferyl aldehyde],aphids on treated rose plants,[5],eliminated
same,"Rust (rating), Change",[6]; [8],1 and 2
same,"Rust (rating), Change",[6]; [9],3 and 4
same,"Rust (rating), Post",[6]; [9],2 (2=26-50) and 1 (1=1-25)
same,"Rust (rating), Pre",[6]; [10],3 (3=51-75) and 4 (4=76-90)
same,"Rust (rating), Pre",[6]; [11],5 (5=>90% total leaves per bush)
same,eggs hatched incompletely (IH),[3]; [12],85%
same,nymphs that died in the shell (DIS),[3]; [12],12%
same,nymphs that died in the shell (DIS),"[3]; 5000 ppm aldehyde in 6% NaHCO3, 2% Tween 80, 7 days",10%
same,"Powdery Mildew, Post (rating)",[7]; [8],2 (2=26-50) and 1 (1=1-25)
same,"Powdery Mildew, Change in rating",[7]; [9],3 and 4
same,"Powdery Mildew, Post (rating)",[7]; [9],2 (2=26-50) and 1 (1=1-25)
same,"Mean % Disease Control, rose powdery mildew","[7]; aldehyde 5 g (mixture 2.5 g + 2.5 g) with NaHCO3 (80 g), four days",44%
same,"Mean % Disease Control, rose powdery mildew","[7]; aldehyde 5 g (mixture 2.5 g + 2.5 g) with T80 (10 g), four days",44%
same,"Mean % Disease Control, rose powdery mildew","[7]; aldehyde 5 g (mixture 2.5 g + 2.5 g) with T80 + NaHCO3 (formulas G, M, Q), four days",81%
same,"Mean % Disease Control, rose powdery mildew","[7]; aldehyde 5 g (mixture 2.5 g + 2.5 g), no additive, rated four days after treatment",56%
same,"Powdery Mildew, Pre (rating)",[7]; [10],3 (3=51-75) and 4 (4=76-90)
same,"Powdery Mildew, Pre (rating)",[7]; [11],5 (5=>90% total leaves per bush)
"CCN(CC)c1cccc(C)c1 [N,N-diethyl-m-toluamine, reference compound]",vapor pressure,[2],167×10^−5 mm Hg
